Measurements reported in ChEMBL document CHEMBL1201862, “PubChem BioAssay data set” (2004).
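Following 48 hours of exposure in 96-well plates, responses at five concentrations were used to interpolate endpoints linearly. GI50: concentration for 50% inhibition of growth.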 Active and inactive are the calls of the source. Rule as the data show it: active = GI50 up to about 1.1 µM and inactive = higher.

Tests used:
Test in all cases: growth of human tumour cells (NCI), 48 h
SK-MEL-2 = tested on: SK-MEL-2
IGROV-1 = tested on: IGROV-1
NCI-H23 = tested on: NCI-H23
SNB-19 = tested on: SNB-19
SK-OV-3 = tested on: SK-OV-3
HOP-62 = tested on: HOP-62
T47D = tested on: T47D
MDA-MB-435 = tested on: MDA-MB-435
TK-10 = tested on: TK-10
MOLT-4 = tested on: MOLT-4
UACC-62 = tested on: UACC-62
KM12 = tested on: KM12
CAKI-1 = tested on: CAKI-1
RPMI-8226 = tested on: RPMI-8226
NCI/ADR-RES = tested on: NCI/ADR-RES
HCT-116 = tested on: HCT-116
SF-539 = tested on: SF-539
UO-31 = tested on: UO-31
SF-295 = tested on: SF-295
HCC 2998 = tested on: HCC 2998

| Compound | GI50 (SK-MEL-2) | GI50 (IGROV-1) | GI50 (NCI-H23) | GI50 (SNB-19) | GI50 (SK-OV-3) | GI50 (HOP-62) | GI50 (T47D) | GI50 (MDA-MB-435) | GI50 (TK-10) | GI50 (MOLT-4) | GI50 (UACC-62) | GI50 (KM12) | GI50 (CAKI-1) | GI50 (RPMI-8226) | GI50 (NCI/ADR-RES) | GI50 (HCT-116) | GI50 (SF-539) | GI50 (UO-31) | GI50 (SF-295) | GI50 (HCC 2998) |
| --- | --- | --- | --- | --- | --- | --- | --- | --- | --- | --- | --- | --- | --- | --- | --- | --- | --- | --- | --- | --- |
| CCNCCC1(CC)C(=O)NC(=O)NC1=O | > 100 µM (inactive) | > 100 µM (inactive) | > 100 µM (inactive) | > 100 µM (inactive) | > 100 µM (inactive) | > 100 µM (inactive) | > 100 µM (inactive) | > 100 µM (inactive) | > 100 µM (inactive) | > 100 µM (inactive) | > 100 µM (inactive) | > 100 µM (inactive) | > 100 µM (inactive) | > 100 µM (inactive) | > 100 µM (inactive) | > 100 µM (inactive) | > 100 µM (inactive) | > 100 µM (inactive) | > 100 µM (inactive) |  |
| Cc1cc(S(=O)(=O)Nc2nc3ccsc3c(=O)n2N)c(S)cc1Cl | 76.2 µM (inactive) | > 100 µM (inactive) | > 100 µM (inactive) | 37.2 µM (inactive) | > 100 µM (inactive) | 39.9 µM (inactive) |  | 83.8 µM (inactive) | > 100 µM (inactive) | 64.3 µM (inactive) | 38.7 µM (inactive) | 80.7 µM (inactive) | > 100 µM (inactive) | > 100 µM (inactive) | 85.3 µM (inactive) | 94.8 µM (inactive) | > 100 µM (inactive) |  | 31.3 µM (inactive) | > 100 µM (inactive) |
| C/C=C\C(CC(=O)NCCC1CN(S(=O)(=O)C(F)(F)F)c2ccccc21)CC(=O)OC (stereo not given) | 32.1 µM (inactive) | 50 µM (inactive) | 34.7 µM (inactive) | 44.7 µM (inactive) | 64.3 µM (inactive) | 35.2 µM (inactive) |  | > 10 µM (inactive) |  | 29.6 µM (inactive) | 34.1 µM (inactive) | 26.9 µM (inactive) | 56.6 µM (inactive) | 31.8 µM (inactive) | 29.6 µM (inactive) | 31.3 µM (inactive) |  | 35.3 µM (inactive) | 42.4 µM (inactive) | 53.3 µM (inactive) |
| CC(=O)[C@@]1(C)CC2(CCN(C)CC2)OC1C (stereo not given in full) |  | > 100 µM (inactive) | > 100 µM (inactive) | > 100 µM (inactive) | > 100 µM (inactive) | > 100 µM (inactive) | > 100 µM (inactive) | > 100 µM (inactive) | > 100 µM (inactive) | > 100 µM (inactive) |  | > 100 µM (inactive) | > 100 µM (inactive) | > 100 µM (inactive) | > 100 µM (inactive) | > 100 µM (inactive) | > 100 µM (inactive) | > 100 µM (inactive) | > 100 µM (inactive) |  |
| Cc1n[nH]c(=S)n1/N=C/c1ccc(-c2ccc(Cl)cc2)o1 | 29.8 µM (inactive) | > 100 µM (inactive) | 39.6 µM (inactive) |  |  | 49.7 µM (inactive) | > 100 µM (inactive) | > 100 µM (inactive) | 83.4 µM (inactive) | > 100 µM (inactive) |  | > 100 µM (inactive) | > 100 µM (inactive) | > 100 µM (inactive) | > 100 µM (inactive) | > 100 µM (inactive) | 77.1 µM (inactive) | > 100 µM (inactive) | 67.8 µM (inactive) |  |
| CC1=C(c2cc(C(=O)Nc3ccc(Cl)c(Cl)c3)nc(N)n2)Sc2ccccc2N1 | > 100 µM (inactive) | > 100 µM (inactive) | > 100 µM (inactive) | > 100 µM (inactive) | > 100 µM (inactive) | > 100 µM (inactive) |  |  | > 100 µM (inactive) | > 100 µM (inactive) | > 100 µM (inactive) | > 100 µM (inactive) | > 100 µM (inactive) | > 100 µM (inactive) |  | > 100 µM (inactive) | > 100 µM (inactive) | > 100 µM (inactive) | > 100 µM (inactive) | > 100 µM (inactive) |
| COc1cc2c(c(OC)c1OC)-c1ccc(SC)c(=O)cc1C(CC(=O)Oc1ccc(F)cc1)C2 (stereo not given) | 0.23 µM (active) | 0.605 µM (active) | 0.215 µM (active) | 0.255 µM (active) | 0.028 µM (active) | 0.341 µM (active) |  |  | 40.8 µM (inactive) | 0.436 µM (active) | 0.129 µM (active) | 0.158 µM (active) | 0.0676 µM (active) | 0.296 µM (active) |  | 0.0891 µM (active) | 0.117 µM (active) | 0.817 µM (active) | 0.0359 µM (active) | 0.121 µM (active) |
| Oc1c(Cl)c(Cl)c(O)c2c1CCCC2 | 19.7 µM (inactive) |  | 18.4 µM (inactive) | 16 µM (inactive) | 14.2 µM (inactive) | 25.4 µM (inactive) |  | 16.4 µM (inactive) | 3.37 µM (inactive) |  | 13.4 µM (inactive) | 12.4 µM (inactive) |  | 2.72 µM (inactive) | 15.5 µM (inactive) | 1.51 µM (inactive) | 8.69 µM (inactive) | 2.36 µM (inactive) | 18.5 µM (inactive) | 14.3 µM (inactive) |
| N=C(c1ccc(-c2cn3cc(C(=N)N4CCCC4)ccc3n2)cc1)N1CCCC1 | > 100 µM (inactive) | > 100 µM (inactive) | > 100 µM (inactive) | > 100 µM (inactive) | > 100 µM (inactive) | > 100 µM (inactive) | > 100 µM (inactive) | > 100 µM (inactive) | > 100 µM (inactive) | > 100 µM (inactive) | > 100 µM (inactive) | > 100 µM (inactive) | > 100 µM (inactive) | > 100 µM (inactive) | > 100 µM (inactive) | > 100 µM (inactive) |  | > 100 µM (inactive) | > 100 µM (inactive) |  |
| O=C1CSC(c2cccc(Oc3ccccc3)c2)N1c1ccc(Cl)cc1 (stereo not given) | 18.5 µM (inactive) |  | 25.5 µM (inactive) | 54.8 µM (inactive) | 66.4 µM (inactive) | 57 µM (inactive) | 10.2 µM (inactive) | 23.2 µM (inactive) | 22.4 µM (inactive) | 13.6 µM (inactive) | 10.8 µM (inactive) | 21.3 µM (inactive) | 17.9 µM (inactive) |  | 24.4 µM (inactive) | 13.6 µM (inactive) | 32.1 µM (inactive) | 34.5 µM (inactive) | 31 µM (inactive) |  |
| Cc1ccc(-n2cc(-c3ccc(Cl)cc3)c3c(N/N=C4\SCC(=O)N4C)ncnc32)cc1 | 2.48 µM (inactive) | 14.8 µM (inactive) | 3.9 µM (inactive) | 9.59 µM (inactive) | 2.54 µM (inactive) | 9.14 µM (inactive) | 91.4 µM (inactive) | 4.23 µM (inactive) | 2.64 µM (inactive) | 38.9 µM (inactive) | 3.44 µM (inactive) | 7.96 µM (inactive) | 4.23 µM (inactive) | 12.9 µM (inactive) | 6.65 µM (inactive) | 4.59 µM (inactive) | 12 µM (inactive) | 46.3 µM (inactive) | 2.67 µM (inactive) |  |
| COC(=O)/C=C(\C(=O)OC)C1C(=O)Oc2c(C)c(=O)c3ccccc3n21 (stereo not given) | > 100 µM (inactive) | > 100 µM (inactive) | > 100 µM (inactive) | > 100 µM (inactive) | > 100 µM (inactive) | > 100 µM (inactive) | > 100 µM (inactive) | > 100 µM (inactive) | > 100 µM (inactive) | > 100 µM (inactive) | > 100 µM (inactive) | > 100 µM (inactive) | > 100 µM (inactive) | > 100 µM (inactive) | > 100 µM (inactive) | > 100 µM (inactive) | > 100 µM (inactive) |  | > 100 µM (inactive) |  |
| O=C1OC2(c3ccccc31)c1cc(I)c(O)c(I)c1Oc1c2cc(I)c(O)c1I [ERYTHROSINE] | > 100 µM (inactive) | > 100 µM (inactive) | 70 µM (inactive) | > 100 µM (inactive) | > 100 µM (inactive) | > 100 µM (inactive) | > 100 µM (inactive) | > 100 µM (inactive) | > 100 µM (inactive) | > 100 µM (inactive) | 75.9 µM (inactive) | 10.4 µM (inactive) | 14.6 µM (inactive) | > 100 µM (inactive) | > 100 µM (inactive) | 72.4 µM (inactive) | > 100 µM (inactive) | > 100 µM (inactive) | > 100 µM (inactive) |  |
| CCOC(=O)/C=C1\c2ccccc2C(=O)N1CC(=O)OCC | > 100 µM (inactive) | > 100 µM (inactive) | > 100 µM (inactive) | > 100 µM (inactive) | > 100 µM (inactive) | > 100 µM (inactive) | > 100 µM (inactive) | > 100 µM (inactive) | > 100 µM (inactive) | > 100 µM (inactive) | > 100 µM (inactive) | > 100 µM (inactive) | > 100 µM (inactive) | > 100 µM (inactive) | 50 µM (inactive) | > 100 µM (inactive) |  | > 100 µM (inactive) | > 100 µM (inactive) |  |
| CCOC1=C2C(=O)OC(=O)C2C2CCCCC2=C1 (stereo not given) | > 100 µM (inactive) | > 100 µM (inactive) | > 100 µM (inactive) | > 100 µM (inactive) | > 100 µM (inactive) | > 100 µM (inactive) |  |  | > 100 µM (inactive) | > 100 µM (inactive) | > 100 µM (inactive) | > 100 µM (inactive) | > 100 µM (inactive) | > 100 µM (inactive) |  | > 100 µM (inactive) | > 100 µM (inactive) | > 100 µM (inactive) | > 100 µM (inactive) | > 100 µM (inactive) |
| Cc1ccc(/C=C2\Cc3cc(C)c(C)cc3C2=O)c(C(=O)O)c1 | 45.6 µM (inactive) | 37.8 µM (inactive) | > 10 µM (inactive) | 30.9 µM (inactive) |  | 33.7 µM (inactive) | 43.3 µM (inactive) |  | > 100 µM (inactive) | 34.3 µM (inactive) | 61.7 µM (inactive) | 35.8 µM (inactive) | 45.8 µM (inactive) | 40.4 µM (inactive) |  | 32.1 µM (inactive) | 13.7 µM (inactive) | 29 µM (inactive) | 33.5 µM (inactive) | 26.1 µM (inactive) |
